“Also recorded” adds a separate entry of the source.

One data set relates to RSV. In words: Anti-RSV antiviral activity assay (syncytial formation, Hep-2 cells). In kind it is cell-based, respiratory syncytial virus. Conditions: purified peptides. The method, then:
The assay utilized herein tested the ability of the peptides to disrupt the ability of HEp2 cells acutely infected with RSV (i.e., cells which are infected with a multiplicity of infection of greater than 2) to fuse and cause syncytial formation on a monolayer of uninfected an uninfected line of Hep-2 cells. The lower the observed level of fusion, the greater the antiviral activity of the peptide was determined to be. […]
After incubation, cells in control wells were checked for fusion centers, media was removed from the wells, followed by addition, to each well, of either Crystal Violet stain or XTT. […] The number of syncytia per well were then counted, using a dissecting microscope.
With respect to XTT (2,3-bis[2-Methoxy-4-nitro-5-sulfophenyl]-2H-tetrazolium-5-carboxyanilide inner salt), 50 μl XTT (1 mg/ml in RPMI buffered with 100 mM HEPES, pH 7.2-7.4, plus 5% DMSO) were added to each well. The OD450/690 was measured (after blanking against growth medium without cells or reagents, and against reagents) according to standard procedures. […]

Data set [1] has as its target viral gp41 of HIV-1 (on virions and HIV-1 infected cells) (HIV-1) (UniProt P03377). In words: cell-based or functional assay.
Data set [2] concerns HIV-1LAI virus. In words: Cell fusion assay (HIV-1 induced syncytia formation). The format is cell-based. The text has this:
The results of several such experiments are presented herein.

Data set [3] has as its system HIV-1LAI virus. Conditions: FIG. 1 legend. The method, then: Synthetic peptides were incubated at 37° C. with either 247 TCID50 (for experiment depicted in FIG. 2), or 62 TCID50 (for experiment depicted in FIG. 3) units of HIV-1LAI virus or 25 TCID50 units of HIV-2NIHZ and CEM CD4^+ cells at peptide concentrations of 0, 0.04, 0.4, 4.0, and 40 μg/ml for 7 days. The resulting reverse transcriptase (RT) activity in counts per minute was determined using the assay described, below, in Section 6.1.5. See Reed, L. J. et al., 1938, Am. J. Hyg. 27: 493-497 for an explanation of TCID50 calculations.
The micro-reverse transcriptase (RT) assay was adapted from Goff et al. (Goff, S. et al., 1981, J. Virol. 38:239-248) and Willey et al. (Willey, R. et al., 1988, J. Virol. 62:139-147). Supernatants from virus/cell cultures are adjusted to 1% Triton-X100. A 10 μl sample of supernatant was added to 50 μl of RT cocktail in a 96-well U-bottom microtitre plate and the samples incubated at 37° C. for 90 min. The RT cocktail contained 75 mM KCl, 2 mM dithiothreitol, 5 mM MgCl2, 5 μg/ml poly A (Pharmacia, cat. No. 27-4110-01), 0.25 units/ml oligo dT (Pharmacia, cat. No. 27-7858-01), 0.05% NP40, 50 mM Tris-HCl, pH 7.8, 0.5 μM non-radioactive dTTP, and 10 μCi/ml ^32P-dTTP (Amersham, cat. No. PB.10167).
After the incubation period, 40 μl of reaction mixture was applied to a Schleicher and Schuell (S+S) NA45 membrane (or DE81 paper) saturated in 2×SSC buffer (0.3M NaCl and 0.003M sodium citrate) held in a S+S Minifold over one sheet of GB003 (S+S) filter paper, with partial vacuum applied. Each well of the minifold was washed four times with 200 μl 2×SSC, under full vacuum. The membrane was removed from the minifold and washed 2 more times in a pyrex dish with an excess of 2×SSC. Finally, the membrane was drained on absorbent paper, placed on Whatman #3 paper, covered with Saran wrap, and exposed to film overnight at −70° C.
DP178 (SEQ ID:1) was next tested for its ability to block CD-4^+ CEM cell infection by cell free HIV-1 virus. […]

A further data set concerns CEM cells. In words: Cell proliferation and toxicity assay. The format is cell-based. Conditions: 3 days, highest concentration tested 40 μg/ml. How it is done: Cell proliferation and toxicity assay: Approximately 3.8×10^5 CEM cells for each peptide concentration were incubated for 3 days at 37° C. in T25 flasks. Peptides tested were DP178 (SEQ ID:1) and DP-116 (SEQ ID:9), as described in FIG. 1. Peptides were synthesized as described, above, in Section 6.1. The concentrations of each peptide used were 0, 2.5, 10, and 40 μg/ml. Cell counts were taken at incubation times of 0, 24, 48, and 72 hours.

In data set [4] the target is T1, DP107-like domain of the RSV F1 protein (Human respiratory syncytial virus A, UniProt P03420).
T1 construct: made in house
T1 sequence (P03420 142-302): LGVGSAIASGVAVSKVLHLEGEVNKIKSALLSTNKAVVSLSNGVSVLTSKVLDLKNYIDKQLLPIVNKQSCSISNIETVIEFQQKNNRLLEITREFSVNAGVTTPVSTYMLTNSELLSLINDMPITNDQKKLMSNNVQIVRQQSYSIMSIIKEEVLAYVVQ
The format is binding. How it is done: After incubation and washing, unbound Fab-d is removed from the plates and bound Fab-d is quantitated. A no-inhibitor control should also be conducted.
Such an assay takes advantages of accepted radioligand and receptor binding principles.
Specifically, the DNA sequence corresponding amino acid residues 142-302 of the RSV F1 protein was amplified by PCR and cloned into the Xmn I site of the expression vector pMal-p2 (New England Biolab) to give MF5.1. These amino acid residues correspond to the extracellular domain of the RSV F1 protein including its DP107 region but excluding the DP178 region.
Cell fusion assays were performed with each of the peptides as described in Section 17 above. The binding affinity of each peptide was also measured in a competitive binding assay described in Section 5.6.1 above, wherein the concentration of each peptide necessary to bind to the M5.1 fusion protein (i.e., the B50 value), and thereby disrupt binding of biotin labeled T112 (T888) to the fusion protein, was measured.

For the compound `CC[C@H](C)[C@H](NC(=O)[C@H](Cc1ccccc1)NC(=O)[C@H](C)NC(=O)[C@H](CC(C)C)NC(=O)[C@H](CO)NC(=O)[C@H](CCC(N)=O)NC(=O)[C@H](CC(N)=O)NC(=O)[C@@H](NC(=O)[C@H](CCCCN)NC(=O)[C@H](CCC(=O)O)NC(=O)[C@H](CC(N)=O)NC(=O)[C@@H](NC(=O)[C@H](CCC(N)=O)NC(=O)[C@H](CO)NC(=O)[C@@H](NC(=O)[C@H](CO)NC(=O)[C@H](C)NC(=O)[C@H](CC(=O)O)NC(=O)[C@H](Cc1ccccc1)NC(=O)[C@H](CCC(=O)O)NC(=O)[C@H](CC(=O)O)NC(=O)[C@H](CO)NC(=O)[C@@H]1CCCN1C(=O)[C@H](Cc1ccccc1)NC(=O)[C@@H](NC(C)=O)C(C)C)[C@@H](C)CC)C(C)C)[C@@H](C)CC)C(=O)N[C@@H](CCCNC(=N)N)C(=O)N[C@@H](CCCCN)C(=O)N[C@@H](CO)C(=O)N[C@@H](CC(=O)O)C(=O)N[C@@H](CCC(=O)O)C(=O)N[C@@H](CC(C)C)C(=O)N[C@@H](CC(C)C)C(=O)N[C@@H](Cc1c[nH]cn1)C(=O)N[C@@H](CC(N)=O)C(=O)N[C@H](C(N)=O)C(C)C` [T112], in the data set with RSV, the “anti-RSV antiviral activity” value was “substantial antiviral activity”.
In data set [1], M41-P (from UniProt P03377 540-686) registered a Cell fusion (IC90) of 83 nM and an HIV infectivity (IC90) of 66 nM.
For the compound “DP-180: control peptide incorporating the amino acid residues of DP178 in a scrambled sequence (NNLLRAIEAQQHLLQLTVW; Core polypeptide) [reference compound]”, the anti-fusogenic activity entry in the data set with HIV-1LAI virus [2] (at 40 μg/ml) is reported as “no evidence of anti-fusogenic activity”.
Turning to “Ac-LQARILAVERYLKDQQQ-NH2 [DP-116, reference compound]”, the “inhibition of HIV-1 cell free virus infection” value with HIV-1LAI virus [3] is reported as “negative for inhibition of HIV-1 infection”.
Consider enfuvirtide, for which the “cytotoxic effects on cells in culture” value in the data set on CEM cells is “non-cytotoxic; also recorded: no cytotoxic effects”.
In data set [1], M41-PΔ178 (from UniProt P03377 540-642) registered a Cell fusion (IC90) of over 50000 nM and an HIV infectivity (IC90) of over 8000 nM.
Take “M41 (maltose binding fusion protein of the gp41 ectodomain) (from UniProt P0AEX9 27-392; P03377 540-686)”: in data set [1], the Cell fusion (IC90) is over 50000 nM and the HIV infectivity (IC90) is over 16000 nM.
Turning to “Ac-VYPSDEFDASISQVNEKINQALAYIRKADELLHNV-NH2 [T786]”, in data set [4], the “binding affinity relative to T112” value is “approximately ten-fold less”. For the same compound, the Kd in data set [4] (B50, competition with biotin labeled T112 (T888), read-out: binding affinity) came out at 19 nM.
Turning to “H-YTNTIYTLLEESQNQQEKNEQELLELDKWASLWNWF-OH [DP-185]”, in the data set with HIV-1LAI virus [2], the “block of HIV-1-mediated syncytia formation” value is “block HIV-1-mediated syncytia formation”. Besides, the “inhibitory activity on HIV-1-induced syncytia formation, lowest concentration tested” value in the data set on HIV-1LAI virus [2] (FIG. 4) is at most 312.5 ng/mL.

(Values after US6750008B1, “Methods and compositions for inhibition of membrane fusion-associated events, including HIV transmission” (priority 1999, dated 2004).)
